Experimental data reported in article PMC5173319, “Crenactin forms actin-like double helical filaments regulated by arcadin-2” (eLife, 2016).

Assays:
[1] = biological target: T1, crenactin (Pyrobaculum calidifontis, UniProt A3MWN5); test: cryoEM helical reconstruction, […] A; format: binding; conditions: filament polymerised with 2 mM ATP and 4 mM MgCl2, 50 mM NH4HCO3, 20 mM KCl, on ice; ATPase active site
T1 construct: gene cren-1; full length 1-432, N-terminal His6-SUMO tag cleaved by SENP1; E. coli C41(DE3), codon-optimised gene; double helical filament (homopolymer); model residues 5-430

[2] = biological target: T1, crenactin; test: […] degree light scattering, polymerisation; format: biochemical; conditions: 3 uM crenactin, 2 mM ATP, 4 mM MgCl2, 50 mM NH4HCO3, 50 mM NaCl, 8% PEG 8000, 25 C

T1 sequence (A3MWN5 whole entry, the tested form may be a part): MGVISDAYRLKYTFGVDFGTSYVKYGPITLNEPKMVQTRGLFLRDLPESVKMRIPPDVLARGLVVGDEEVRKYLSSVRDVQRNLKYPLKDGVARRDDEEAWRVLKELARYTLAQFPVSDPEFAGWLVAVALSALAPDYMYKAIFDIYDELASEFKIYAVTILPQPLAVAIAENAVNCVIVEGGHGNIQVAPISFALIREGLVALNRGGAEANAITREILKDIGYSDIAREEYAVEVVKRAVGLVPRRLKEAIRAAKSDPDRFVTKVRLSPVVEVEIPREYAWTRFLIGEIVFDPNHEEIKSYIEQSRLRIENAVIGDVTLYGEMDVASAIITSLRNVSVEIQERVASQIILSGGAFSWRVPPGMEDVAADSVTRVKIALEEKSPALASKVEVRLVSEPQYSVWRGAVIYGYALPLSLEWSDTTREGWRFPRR

**Q.** With `Nc1ncnc2c1ncn2[C@@H]1O[C@H](COP(=O)(O)OP(=O)(O)O)[C@@H](O)[C@H]1O` [ADP] as the compound, how does the “cryoEM helical reconstruction, 3.8 A” value [1] read?
**A.** The cryoEM density for the ADP nucleotide is superimposed.

**Q.** `Nc1ncnc2c1ncn2[C@@H]1O[C@H](COP(=O)(O)OP(=O)(O)OP(=O)(O)O)[C@@H](O)[C@H]1O` [ATP] was tested. Which “90 degree light scattering, polymerisation” value [2] did it give?
**A.** Addition of ATP to crenactin resulted in an increase of scattering
